Inconclusive results and toxic doses are left out. Rule as the data show it: active = T/C of 150% or more; inactive = T/C below 125%.
Test system: L1210 leukemia ip in BDF1 mice, survival T/C
Test: NCI In Vivo Anticancer Drug Screen. Data for tumor model L1210 Leukemia (intraperitoneal) in B6D2F1 (BDF1) mice
Details: endpoint: mean survival time, higher = longer survival
Method: The antitumor activity of compounds was measured in mice bearing transplantable tumors. Survival or tumor size were measured and the results are expressed as the measurement made in the treated group (T) divided by the measurement made in the vehicle treated control group (C). The tumor model used in this assay is L1210 Leukemia (intraperitoneal) in B6D2F1 (BDF1) mice

[1] = dose: 100.0 mg/kg/injection, schedule: Q01DX001 (ip), vehicle: saline with Tween-80
[2] = dose: 200.0 mg/kg/injection, schedule: Q01DX001 (ip), vehicle: saline with Tween-80
[3] = dose: 100.0 mg/kg/injection, schedule: Q04DX002 (ip), vehicle: Klucel (hydroxypropylcellulose) (HPC)
[4] = dose: 200.0 mg/kg/injection, schedule: Q04DX002 (ip), vehicle: Klucel (hydroxypropylcellulose) (HPC)
[5] = dose: 400.0 mg/kg/injection, schedule: Q04DX002 (ip), vehicle: Klucel (hydroxypropylcellulose) (HPC)
[6] = dose: 100.0 mg/kg/injection, schedule: Q04DX003 (ip), vehicle: saline with Tween-80
[7] = dose: 200.0 mg/kg/injection, schedule: Q04DX003 (ip), vehicle: saline with Tween-80
[8] = dose: 400.0 mg/kg/injection, schedule: Q04DX003 (ip), vehicle: saline with Tween-80
[9] = dose: 100.0 mg/kg/injection, schedule: Q04DX003 (ip), vehicle: Klucel (hydroxypropylcellulose) (HPC)
[10] = dose: 100.0 mg/kg/injection, schedule: Q04DX003 (ip), vehicle: other
[11] = dose: 200.0 mg/kg/injection, schedule: Q04DX003 (ip), vehicle: other
[12] = dose: 200.0 mg/kg/injection, schedule: Q04DX003 (ip), vehicle: Klucel (hydroxypropylcellulose) (HPC)
[13] = dose: 400.0 mg/kg/injection, schedule: Q04DX003 (ip), vehicle: Klucel (hydroxypropylcellulose) (HPC)

Measured: T/C

c1cc[c]([Sn]([O]B([O][Sn]([c]2ccccc2)([c]2ccccc2)[c]2ccccc2)[O][Sn]([c]2ccccc2)([c]2ccccc2)[c]2ccccc2)([c]2ccccc2)[c]2ccccc2)cc1
inactive: dose: 5.0 mg/kg/injection, schedule: Q04DX002 (ip), vehicle: saline with Tween-80 101 % of control | dose: 10.0 mg/kg/injection, schedule: Q04DX002 (ip), vehicle: saline with Tween-80 104 % of control | dose: 20.0 mg/kg/injection, schedule: Q04DX002 (ip), vehicle: saline with Tween-80 101 % of control

CC(=O)C(=O)Nc1ccccc1
inactive: [1] 94 % of control | [2] 91 % of control | dose: 400.0 mg/kg/injection, schedule: Q01DX001 (ip), vehicle: saline with Tween-80 94 % of control

CCN=C(c1ccc(NC(=O)c2ccc(C(=O)Nc3ccc(C(=NCC)N(CC)C(=O)CC(C)C)cc3)cc2)cc1)N(CC)C(=O)CC(C)C
inactive: dose: 3.12 mg/kg/injection, schedule: Q01DX015 (ip), vehicle: methylcellulose (MC) 96 % of control | dose: 6.25 mg/kg/injection, schedule: Q01DX015 (ip), vehicle: methylcellulose (MC) 96 % of control | dose: 12.5 mg/kg/injection, schedule: Q01DX015 (ip), vehicle: methylcellulose (MC) 92 % of control | dose: 25.0 mg/kg/injection, schedule: Q01DX015 (ip), vehicle: methylcellulose (MC) 93 % of control | dose: 50.0 mg/kg/injection, schedule: Q01DX015 (ip), vehicle: methylcellulose (MC) 96 % of control | dose: 100.0 mg/kg/injection, schedule: Q01DX015 (ip), vehicle: methylcellulose (MC) 88 % of control | dose: 200.0 mg/kg/injection, schedule: Q01DX015 (ip), vehicle: methylcellulose (MC) 94 % of control

S=C(NNc1ccccc1)Nc1ccccc1
inactive: dose: 100.0 mg/kg/injection, schedule: Q01DX001 (ip), vehicle: Klucel (hydroxypropylcellulose) (HPC) 93 % of control | dose: 200.0 mg/kg/injection, schedule: Q01DX001 (ip), vehicle: Klucel (hydroxypropylcellulose) (HPC) 103 % of control | dose: 400.0 mg/kg/injection, schedule: Q01DX001 (ip), vehicle: Klucel (hydroxypropylcellulose) (HPC) 95 % of control

O=C(O)c1c(F)c(F)c(-c2c(F)c(F)c(F)c(F)c2F)c(F)c1F
inactive: [1] 86 % of control | [2] 91 % of control

COc1c(-c2cc(C)nc(NC#N)n2)c(O)cc2occc12
inactive: [3] 95 % of control | [4] 95 % of control | [5] 98 % of control

c1ccc(-c2nnn(-c3ccccc3)n2)cc1
inactive: [6] 94 % of control | [7] 93 % of control | [8] 98 % of control

CCCCCCCCCCCCCCCCCC[n+]1cccc(C(=O)N2CCOCC2)c1
inactive: dose: 2.0 mg/kg/injection, schedule: Q01DX009 (ip), vehicle: Klucel (hydroxypropylcellulose) (HPC) 97 % of control | dose: 4.0 mg/kg/injection, schedule: Q01DX009 (ip), vehicle: Klucel (hydroxypropylcellulose) (HPC) 110 % of control | dose: 8.0 mg/kg/injection, schedule: Q01DX009 (ip), vehicle: Klucel (hydroxypropylcellulose) (HPC) 98 % of control | dose: 12.5 mg/kg/injection, schedule: Q04DX003 (ip), vehicle: Klucel (hydroxypropylcellulose) (HPC) 88 % of control | dose: 16.0 mg/kg/injection, schedule: Q01DX009 (ip), vehicle: Klucel (hydroxypropylcellulose) (HPC) 104 % of control | dose: 25.0 mg/kg/injection, schedule: Q04DX003 (ip), vehicle: Klucel (hydroxypropylcellulose) (HPC) 96 % of control | dose: 32.0 mg/kg/injection, schedule: Q01DX009 (ip), vehicle: Klucel (hydroxypropylcellulose) (HPC) 90 % of control | dose: 50.0 mg/kg/injection, schedule: Q04DX003 (ip), vehicle: Klucel (hydroxypropylcellulose) (HPC) 93 % of control | [9] 92 % of control

COC(=O)NC1CCCCC1I (configuration not stated)
inactive: dose: 100.0 mg/kg/injection, schedule: Q01DX009 (ip), vehicle: saline with Tween-80 89 % of control | [6] 95 % of control | dose: 200.0 mg/kg/injection, schedule: Q01DX009 (ip), vehicle: saline with Tween-80 101 % of control | [7] 98 % of control | dose: 400.0 mg/kg/injection, schedule: Q01DX009 (ip), vehicle: saline with Tween-80 96 % of control | [8] 93 % of control

[Cl][Ho]([Cl])[Cl]
inactive: dose: 100.0 mg/kg/injection, schedule: Q01DX005 (ip), vehicle: Klucel (hydroxypropylcellulose) (HPC) 94 % of control | dose: 100.0 mg/kg/injection, schedule: Q01DX009 (ip), vehicle: Klucel (hydroxypropylcellulose) (HPC) 98 % of control | [3] 88 % of control | dose: 200.0 mg/kg/injection, schedule: Q01DX005 (ip), vehicle: Klucel (hydroxypropylcellulose) (HPC) 98 % of control | dose: 200.0 mg/kg/injection, schedule: Q01DX009 (ip), vehicle: Klucel (hydroxypropylcellulose) (HPC) 95 % of control | [4] 98 % of control | dose: 400.0 mg/kg/injection, schedule: Q01DX005 (ip), vehicle: Klucel (hydroxypropylcellulose) (HPC) 88 % of control | [5] 109 % of control

C#CCN(Cc1ccccc1)C(=O)Nc1cccc(Cl)c1
inactive: [10] 106 % of control | [11] 98 % of control | dose: 400.0 mg/kg/injection, schedule: Q04DX003 (ip), vehicle: other 96 % of control

CC(Oc1ccc([N+](=O)[O-])cc1Cl)C(=O)Nc1ccc(S(=O)(=O)F)cc1 (configuration not stated)
inactive: [9] 100 % of control | [12] 100 % of control | [13] 92 % of control

Nc1ccc(S(=O)(=O)NS(=O)(=O)c2ccccc2)cc1
inactive: dose: 100.0 mg/kg/injection, schedule: Q01DX001 (ip), vehicle: saline 95 % of control | dose: 200.0 mg/kg/injection, schedule: Q01DX001 (ip), vehicle: saline 93 % of control | dose: 400.0 mg/kg/injection, schedule: Q01DX001 (ip), vehicle: saline 101 % of control

Cc1ccc(/C=N/N)s1
inactive: [10] 92 % of control | [11] 99 % of control

CC#CCOCC1CNC(=O)O1 (configuration not stated)
inactive: dose: 25.0 mg/kg/injection, schedule: Q01DX009 (ip), vehicle: saline 98 % of control | dose: 25.0 mg/kg/injection, schedule: Q04DX003 (ip), vehicle: saline 105 % of control | dose: 50.0 mg/kg/injection, schedule: Q01DX009 (ip), vehicle: saline 93 % of control | dose: 50.0 mg/kg/injection, schedule: Q04DX003 (ip), vehicle: saline 97 % of control | dose: 100.0 mg/kg/injection, schedule: Q01DX009 (ip), vehicle: saline 93 % of control | dose: 100.0 mg/kg/injection, schedule: Q04DX003 (ip), vehicle: saline 97 % of control | dose: 200.0 mg/kg/injection, schedule: Q01DX009 (ip), vehicle: saline 102 % of control | dose: 200.0 mg/kg/injection, schedule: Q04DX003 (ip), vehicle: saline 103 % of control | dose: 400.0 mg/kg/injection, schedule: Q01DX009 (ip), vehicle: saline 104 % of control | dose: 400.0 mg/kg/injection, schedule: Q04DX003 (ip), vehicle: saline 103 % of control

COC(=O)c1cc(OC)nc(OC)c1
inactive: [9] 102 % of control | [12] 110 % of control | [13] 96 % of control

CCC[CH2][Sn]1([CH2]CCC)[O]OC(C)(CC)[O]1 (configuration not stated)
inactive: dose: 6.25 mg/kg/injection, schedule: Q01DX009 (ip), vehicle: saline sonified 108 % of control

— PubChem BioAssay AID248 (DTP/NCI, 2004)
